Measured values as given in patent publication US9365583B2, “Substituted pyrazoles and uses thereof” (Genentech, Inc., priority 2013, dated 2016).

What follows are compounds tested against T1, N-terminally GST-tagged DLK (catalytic domain amino acid 1-520) (Homo sapiens, UniProt Q12852) (assay: DLK TR-FRET inhibition assay). Conditions: 5 nM GST-DLK, 40 nM HIS-MKK4 K131M substrate, 30 μM ATP, 60 minutes at ambient temperature.
T1 construct: N-terminally GST-tagged DLK (catalytic domain amino acid 1-520); purchased Carna Bioscience
T1 sequence (Q12852 1-520): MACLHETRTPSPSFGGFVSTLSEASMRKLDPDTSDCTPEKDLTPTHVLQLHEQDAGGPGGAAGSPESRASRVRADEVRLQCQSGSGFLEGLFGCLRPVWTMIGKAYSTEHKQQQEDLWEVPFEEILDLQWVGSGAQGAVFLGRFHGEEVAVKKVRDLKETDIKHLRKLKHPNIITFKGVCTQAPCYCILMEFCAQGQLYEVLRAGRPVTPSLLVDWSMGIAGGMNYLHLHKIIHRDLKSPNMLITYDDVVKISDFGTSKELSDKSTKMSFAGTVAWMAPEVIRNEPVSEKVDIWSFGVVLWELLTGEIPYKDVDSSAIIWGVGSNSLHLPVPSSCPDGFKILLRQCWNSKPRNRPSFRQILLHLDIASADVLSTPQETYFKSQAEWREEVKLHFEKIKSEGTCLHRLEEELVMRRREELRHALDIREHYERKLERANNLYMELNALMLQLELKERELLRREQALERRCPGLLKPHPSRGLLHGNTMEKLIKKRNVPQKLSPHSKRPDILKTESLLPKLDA
Type: biochemical
In short: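 Phosphorylated MKK4 was quantified by TR-FRET (Eu-labelled anti-phospho-MKK4, D2 anti-HIS; 3 h, 665 and 615 nm emission) after EDTA quench. Reactions held 5 nM GST-tagged DLK catalytic domain (1-520), 40 nM HIS-MKK4 K131M substrate, 30 μM ATP and compound (3-fold series from 20 uM), 60 min, room temperature, pH 7.5.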
For `CC(C)N1CCN([C@@H]2C[C@@H]3[C@H](C2)[C@H]3c2cc(-c3cnc(N)c(OC(F)F)c3)nn2C(C)C)CC1` [compound 176, 3-(difluoromethoxy)-5-(1-isopropyl-5-((1R,3s,5S,6r)-3-(4-isopropyl-piperazin-1-yl)bicyclo[3.1.0]hexan-6-yl)-1H-pyrazol-3-yl) pyridin-2-amine], the Ki was 1.8 nM. `CC(C)n1nc(-c2cnc(N)c(OC(F)(F)F)c2)cc1[C@H]1[C@@H]2C[C@H](NCC(F)F)C[C@@H]21` [compound 282, 5-(5-((1R,3r,5S,6r)-3-((2,2-difluoroethyl)amino)bicyclo[3.1.0]hexan-6-yl)-1-isopropyl-1H-pyrazol-3-yl)-3-(trifluoromethoxy) pyridin-2-amine] was tested, and the Ki was 7.7 nM. `Nc1ncc(-c2cc([C@H]3[C@@H]4C[C@H](N5CCOCC5)C[C@@H]43)nn2C2CCC2)cc1OC(F)F` [compound 132, 5-(1-cyclobutyl-3-((1R,3r,5S,6r)-3-morpholinobicyclo[3.1.0]hexan-6-yl)-1H-pyrazol-5-yl)-3-(difluoromethoxy)pyridin-2-amine] was tested, and the Ki was 258 nM. In the case of `CC(C)n1nc(-c2cnc(N)c(OC(F)(F)F)c2)cc1[C@H]1[C@@H]2C[C@H](N3CCOC[C@@H]3C)C[C@@H]21` [compound 97, 5-(1-isopropyl-5-((1R,3r,5S,6S)-3-((S)-3-methylmorpholino)bicyclo[3.1.0]hexan-6-yl)-1H-pyrazol-3-yl)-3-(trifluoromethoxy) pyridin-2-amine], the Ki is reported as 4.12 nM. `CC(C)n1nc(-c2cnc(N)c(OC(F)F)c2)cc1[C@H]1[C@@H]2C[C@H](N3CCOC[C@@H]3C)C[C@@H]21` [compound 80, 3-(difluoromethoxy)-5-(1-isopropyl-5-((1R,3r,5S,6S)-3-((S)-3-methylmorpholino)bicyclo[3.1.0]hexan-6-yl)-1H-pyrazol-3-yl) pyridin-2-amine] gave a Ki of 0.6 nM. Work on `CC(C)n1nc(-c2cnc(N)c(OC(F)(F)F)c2)cc1[C@H]1[C@@H]2C[C@H](N3CCCN(C)CC3)C[C@@H]21` [compound 204, 5-(1-isopropyl-5-((1R,3r,5S,6r)-3-(4-methyl-1,4-diazepan-1-yl)bicyclo[3.1.0]hexan-6-yl)-1H-pyrazol-3-yl)-3-(trifluoromethoxy) pyridin-2-amine] yielded a Ki of 1.2 nM. `CO[C@H]1CCCN([C@H]2C[C@@H]3[C@H](C2)[C@H]3c2cc(-c3cnc(N)c(C(F)(F)F)c3)nn2C(C)C)C1` [compound 286, 5-(1-isopropyl-5-((1R,3r,5S,6S)-3-((S)-3-methoxypiperidin-1-yl)bicyclo[3.1.0]hexan-6-yl)-1H-pyrazol-3-yl)-3-(trifluoromethyl) pyridin-2-amine] was tested, and the Ki was 3.4 nM. With `CC(C)n1nc(-c2cnc(N)c(OC(F)(F)F)c2)cc1[C@H]1[C@@H]2C[C@H](N3CC4(CCCO4)C3)C[C@@H]21` [compound 226, 5-(5-((1R,3r,5S,6r)-3-(5-oxa-2-azaspiro[3.4]octan-2-yl)bicyclo [3.1.0]hexan-6-yl)-1-isopropyl-1H-pyrazol-3-yl)-3-(trifluoro-methoxy)pyridin-2-amine] the Ki was 3.2 nM. `CCN1CCN([C@@H]2C[C@@H]3[C@H](C2)[C@H]3c2cc(-c3cnc(N)c(C(F)(F)F)c3)nn2C(C)C)CC1` [compound 17, 5-(5-((1R,3s,5S,6r)-3-(4-ethylpiperazin-1-yl)bicyclo[3.1.0]hexan-6-yl)-1-isopropyl-1H-pyrazol-3-yl)-3-(trifluoromethyl)pyridin-2-amine] gave a Ki of 2.92 nM. `CC(C)n1nc(-c2cnc(N)c(C(F)(F)F)c2)cc1C1[C@H]2CC(N3CCOCC3)C[C@@H]12` (stereo partly drawn) [compound 76, 5-(1-isopropyl-5-((1R,3s,5S,6r)-3-morpholinobicyclo[3.1.0]hexan-6-yl)-1H-pyrazol-3-yl)-3-(trifluoromethyl)pyridin-2-amine] gave a Ki of 2.17 nM. For `CC(C)n1nc(-c2cnc(N)c(OC(F)F)c2)cc1[C@H]1[C@@H]2C[C@@H](N3CC4CC(C3)O4)C[C@@H]21` [compound 278, 5-(5-((1R,3s,5S,6r)-3-(6-oxa-3-azabicyclo[3.1.1]heptan-3-yl)bicyclo[3.1.0]hexan-6-yl)-1-isopropyl-1H-pyrazol-3-yl)-3-(difluoromethoxy)pyridin-2-amine], the Ki was 1.4 nM. Compound `CO[C@H]1CCN([C@H]2C[C@@H]3[C@H](C2)[C@H]3c2cc(-c3cnc(N)c(OC(F)(F)F)c3)nn2C(C)C)C1` [compound 23, 5-(1-isopropyl-5-((1R,3r,5S,6S)-3-((S)-3-methoxypyrrolidin-1-yl)bicyclo[3.1.0]hexan-6-yl)-1H-pyrazol-3-yl)-3-(trifluoro-methoxy)pyridin-2-amine] has a Ki of 0.98 nM. Work on `CC(C)n1nc(-c2cnc(N)c(C(F)(F)F)c2)cc1[C@H]1[C@@H]2C[C@H](N(C)C3COC3)C[C@@H]21` [compound 49, 5-(1-isopropyl-5-((1R,3r,5S,6r)-3-(methyl(oxetan-3-yl)amino)bicyclo[3.1.0]hexan-6-yl)-1H-pyrazol-3-yl)-3-(trifluoromethyl) pyridin-2-amine] yielded a Ki of 4.2 nM. `CC(C)n1nc(-c2cnc(N)c(C(F)(F)F)c2)cc1[C@H]1[C@@H]2C[C@H](N3CCCOCC3)C[C@@H]21` [compound 100, 5-(5-((1R,3r,5S,6r)-3-(1,4-oxazepan-4-yl)bicyclo[3.1.0]hexan-6-yl)-1-isopropyl-1H-pyrazol-3-yl)-3-(trifluoromethyl)pyridin-2-amine] was tested, and the Ki was 1.03 nM. With `Nc1ncc(-c2cc([C@H]3[C@@H]4CC(O)C[C@@H]43)n(CC(F)F)n2)cc1OC(F)(F)F` (stereo partly drawn) [compound 94, (1R,5S,6r)-6-(3-(6-amino-5-(trifluoromethoxy)pyridin-3-yl)-1-(2,2-difluoroethyl)-1H-pyrazol-5-yl)bicyclo[3.1.0]hexan-3-ol] the Ki was 1.45 nM. For `Nc1ncc(-c2cc([C@H]3[C@@H]4C[C@@H](N5CCOCC5)C[C@@H]43)n(CC3CC3)n2)cc1OC(F)F` [compound 279, 5-(1-(cyclopropylmethyl)-5-((1R,3s,5S,6r)-3-morpholinobicyclo [3.1.0]hexan-6-yl)-1H-pyrazol-3-yl)-3-(difluoromethoxy)pyridin-2-amine], the Ki was 1.6 nM. `CC(C)n1nc(-c2cnc(N)c(OC(F)F)c2)cc1[C@H]1[C@@H]2C[C@@H](N3CCN(CC(F)F)CC3)C[C@@H]21` [compound 257, 5-(5-((1R,3s,5S,6r)-3-(4-(2,2-difluoro-ethyl)piperazin-1-yl)bicyclo [3.1.0]hexan-6-yl)-1-isopropyl-1H-pyrazol-3-yl)-3-(difluoromethoxy)pyridin-2-amine] was tested, and the Ki was 0.7 nM. Compound `CC(C)n1nc(-c2cnc(N)c(OC(F)F)c2)cc1[C@H]1[C@@H]2C[C@@H](N3CCN4CCCC4C3)C[C@@H]21` (single isomer, unassigned) [compound 259] has a Ki of 0.7 nM. `CC(C)n1nc(-c2cnc(N)c(C(F)(F)F)c2)cc1[C@H]1[C@@H]2CC3(C[C@@H]21)CN(C)CCO3` (single isomer, unassigned) [compound 197] showed a Ki of 1.3 nM. Compound `CC(C)n1nc(-c2cnc(N)c(OC(F)(F)F)c2)cc1[C@H]1[C@@H]2C[C@@]3(CCN3C3COC3)C[C@@H]21` [compound 140, 5-(1-isopropyl-5-((1′R,2r,5′S,6′r)-1-(oxetan-3-yl)spiro[azetidine-2,3′-bicyclo[3.1.0]hexan]-6′-yl)-1H-pyrazol-3-yl)-3-(trifluoro-methoxy)pyridin-2-amine] has a Ki of 6.59 nM.
